Tests used:
Assay type in all cases: cell-based
Pseudomonas aeruginosa = assay: Agar plate disc-diffusion, antibacterial, Pseudomonas aeruginosa; conditions: Gram negative
Description: (§1) The agar plate disc-diffusion method was applied. […] The discs were then placed onto the surface of agar plates (nutrient agar for bacteria and Sabouraud's dextrose agar for fungi) seeded with the test organism. Each plate contained 15 mL of the agar medium, previously seeded with 0.2 mL of the broth culture of each organism pregrown for 18 hours. The plates were incubated at 37° C. for 48 hours and 72 hours for fungi. The inhibition zones were measured in mm. Discs impregnated with DMSO were used as a control, and their inhibition zone was subtracted from the tested compound's actual inhibition zone.

[1] = test system: Chrysosporium keratinophilum; assay: Agar plate disc-diffusion, antifungal, Chrysosporium keratinophilum; conditions: Fungal
Description: as §1

Escherichia coli = assay: Agar plate disc-diffusion, antibacterial, Escherichia coli; conditions: Gram negative
Description: as §1

Bacillus cereus = assay: Agar plate disc-diffusion, antibacterial, Bacillus cereus; conditions: Gram positive
Description: as §1

Staphylococcus aureus = assay: Agar plate disc-diffusion, antibacterial, Staphylococcus aureus; conditions: Gram positive
Description: as §1

Aspergillus flavus = assay: Agar plate disc-diffusion, antifungal, Aspergillus flavus; conditions: Fungal
Description: as §1

[2] = A = concentration of comp. = 10,000 μL
[3] = B = concentration of comp. = 30,000 μL
[4] = C = concentration of comp. = 50,000 μL

For `N/C(=N\OC(=O)CSc1nnc(-c2ccc(Cl)cc2)o1)c1cccc2ccccc12` [compound 3, N′-(2-(5-(4-chlorophenyl)-1,3,4-oxadiazol-2-ylthio)acetoxy)-1-naphthimidamide], the “inhibition zone, Pseudomonas aeruginosa, A” value (Pseudomonas aeruginosa; [2]) was 26 mm, the “inhibition zone, Pseudomonas aeruginosa, B” value (Pseudomonas aeruginosa; [3]) was 28 mm and the “inhibition zone, Pseudomonas aeruginosa, C” value (Pseudomonas aeruginosa; [4]) was 45 mm. The “inhibition zone, Chrysosporium keratinophilum, A” value [1, 2] was 22 mm, the “inhibition zone, Chrysosporium keratinophilum, B” value [1, 3] was 28 mm and the “inhibition zone, Chrysosporium keratinophilum, C” value [1, 4] was 39 mm. For the same molecule, the “inhibition zone, Escherichia coli, A” value (Escherichia coli; [2]) was 26 mm, the “inhibition zone, Escherichia coli, B” value (Escherichia coli; [3]) was 32 mm and the “inhibition zone, Escherichia coli, C” value (Escherichia coli; [4]) was 50 mm. The “inhibition zone, Bacillus Cereus, A” value (Bacillus cereus; [2]) was 22 mm, the “inhibition zone, Bacillus Cereus, B” value (Bacillus cereus; [3]) was 25 mm and the “inhibition zone, Bacillus Cereus, C” value (Bacillus cereus; [4]) was 34 mm. For the same molecule, the “inhibition zone, Staphylococcus aureus, A” value (Staphylococcus aureus; [2]) was 27 mm, the “inhibition zone, Staphylococcus aureus, B” value (Staphylococcus aureus; [3]) was 30 mm and the “inhibition zone, Staphylococcus aureus, C” value (Staphylococcus aureus; [4]) was 38 mm. For the same molecule, the “inhibition zone, Aspergillus flavus, A” value (Aspergillus flavus; [2]) was 24 mm, the “inhibition zone, Aspergillus flavus, B” value (Aspergillus flavus; [3]) was 27 mm and the “inhibition zone, Aspergillus flavus, C” value (Aspergillus flavus; [4]) was 36 mm.
